From ChEMBL document CHEMBL1201862, “PubChem BioAssay data set” (2004)
Active and inactive are the calls of the source.

Assays:
[1] = target: T1, Eukaryotic translation initiation factor 2-alpha kinase 3 (Homo sapiens, UniProt Q9NZJ5); experiment: Dose response cell-based high-throughput screening assay to measure PERK inhibition. [Related pubchem assays: 1416 ]; format: functional
T1 sequence (Q9NZJ5 whole entry): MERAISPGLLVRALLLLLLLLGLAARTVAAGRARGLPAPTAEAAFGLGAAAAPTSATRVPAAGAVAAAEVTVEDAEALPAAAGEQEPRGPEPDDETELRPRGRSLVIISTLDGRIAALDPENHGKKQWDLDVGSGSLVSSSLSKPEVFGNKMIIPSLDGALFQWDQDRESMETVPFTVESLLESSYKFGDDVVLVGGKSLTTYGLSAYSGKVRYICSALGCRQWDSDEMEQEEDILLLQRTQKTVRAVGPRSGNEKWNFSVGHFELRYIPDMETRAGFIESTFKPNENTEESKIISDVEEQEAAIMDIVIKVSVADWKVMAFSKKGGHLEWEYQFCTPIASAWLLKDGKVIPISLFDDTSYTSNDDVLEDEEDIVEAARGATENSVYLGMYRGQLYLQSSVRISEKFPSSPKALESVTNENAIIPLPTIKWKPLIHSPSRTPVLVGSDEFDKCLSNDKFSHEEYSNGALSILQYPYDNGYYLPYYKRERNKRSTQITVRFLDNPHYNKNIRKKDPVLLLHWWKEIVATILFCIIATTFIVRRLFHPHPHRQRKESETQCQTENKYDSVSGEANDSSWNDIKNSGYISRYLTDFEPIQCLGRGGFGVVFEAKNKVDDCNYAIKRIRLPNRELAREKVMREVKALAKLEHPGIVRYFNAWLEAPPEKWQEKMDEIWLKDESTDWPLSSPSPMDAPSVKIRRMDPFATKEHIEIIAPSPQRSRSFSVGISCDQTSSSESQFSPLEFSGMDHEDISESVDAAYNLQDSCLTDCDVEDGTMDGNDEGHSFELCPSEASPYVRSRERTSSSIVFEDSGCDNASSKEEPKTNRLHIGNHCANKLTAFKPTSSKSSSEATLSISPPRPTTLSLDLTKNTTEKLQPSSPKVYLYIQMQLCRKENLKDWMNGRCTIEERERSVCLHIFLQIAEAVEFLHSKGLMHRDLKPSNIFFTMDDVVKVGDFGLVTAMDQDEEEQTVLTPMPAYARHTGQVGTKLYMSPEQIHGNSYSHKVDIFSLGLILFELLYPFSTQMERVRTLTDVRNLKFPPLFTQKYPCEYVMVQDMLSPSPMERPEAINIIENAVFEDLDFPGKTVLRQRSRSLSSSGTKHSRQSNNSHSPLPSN

[2] = cells; format: functional, cell-based
[3] = target: T1, Eukaryotic translation initiation factor 2-alpha kinase 3; experiment: Counterscreen assay for PERK inhibitors: Dose response cell-based high throughput screening assay to measure inhibition of PERK at 6 hours. [Related pubchem assays: 1522, 1416 ]; format: functional
[4] = target: T2, Tyrosine-protein phosphatase non-receptor type 7 (Homo sapiens, UniProt P35236); format: functional
T2 sequence (P35236 whole entry): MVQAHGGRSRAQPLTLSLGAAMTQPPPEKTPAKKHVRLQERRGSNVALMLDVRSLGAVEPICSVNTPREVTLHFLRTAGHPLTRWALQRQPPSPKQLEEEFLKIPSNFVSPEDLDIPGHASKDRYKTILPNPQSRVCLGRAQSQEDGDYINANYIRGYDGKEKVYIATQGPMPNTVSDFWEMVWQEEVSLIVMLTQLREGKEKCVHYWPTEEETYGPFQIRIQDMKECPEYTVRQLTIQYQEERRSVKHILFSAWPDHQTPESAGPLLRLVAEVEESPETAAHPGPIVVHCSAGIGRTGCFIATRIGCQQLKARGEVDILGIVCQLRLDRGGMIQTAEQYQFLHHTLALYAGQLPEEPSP

[5] = target: Glyceraldehyde-3-phosphate dehydrogenase (Homo sapiens, UniProt P04406)
Glyceraldehyde-3-phosphate dehydrogenase, sequence (P04406 whole entry): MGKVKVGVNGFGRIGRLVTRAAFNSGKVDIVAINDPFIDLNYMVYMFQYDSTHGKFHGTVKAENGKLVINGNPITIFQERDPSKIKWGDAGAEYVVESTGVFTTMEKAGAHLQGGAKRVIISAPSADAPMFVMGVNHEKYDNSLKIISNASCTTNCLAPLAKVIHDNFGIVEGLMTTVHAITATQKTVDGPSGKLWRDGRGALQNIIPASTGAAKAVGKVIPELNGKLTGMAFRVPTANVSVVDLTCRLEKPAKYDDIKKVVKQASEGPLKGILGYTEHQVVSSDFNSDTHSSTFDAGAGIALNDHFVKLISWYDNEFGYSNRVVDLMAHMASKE

[6] = target: Heat shock cognate 71 kDa protein (Homo sapiens, UniProt P11142); experiment: In Vitro Hsc70 Dose Response Fluorescence Polarization Assay. [Related pubchem assays: 1072 ]
Heat shock cognate 71 kDa protein, sequence (P11142 whole entry): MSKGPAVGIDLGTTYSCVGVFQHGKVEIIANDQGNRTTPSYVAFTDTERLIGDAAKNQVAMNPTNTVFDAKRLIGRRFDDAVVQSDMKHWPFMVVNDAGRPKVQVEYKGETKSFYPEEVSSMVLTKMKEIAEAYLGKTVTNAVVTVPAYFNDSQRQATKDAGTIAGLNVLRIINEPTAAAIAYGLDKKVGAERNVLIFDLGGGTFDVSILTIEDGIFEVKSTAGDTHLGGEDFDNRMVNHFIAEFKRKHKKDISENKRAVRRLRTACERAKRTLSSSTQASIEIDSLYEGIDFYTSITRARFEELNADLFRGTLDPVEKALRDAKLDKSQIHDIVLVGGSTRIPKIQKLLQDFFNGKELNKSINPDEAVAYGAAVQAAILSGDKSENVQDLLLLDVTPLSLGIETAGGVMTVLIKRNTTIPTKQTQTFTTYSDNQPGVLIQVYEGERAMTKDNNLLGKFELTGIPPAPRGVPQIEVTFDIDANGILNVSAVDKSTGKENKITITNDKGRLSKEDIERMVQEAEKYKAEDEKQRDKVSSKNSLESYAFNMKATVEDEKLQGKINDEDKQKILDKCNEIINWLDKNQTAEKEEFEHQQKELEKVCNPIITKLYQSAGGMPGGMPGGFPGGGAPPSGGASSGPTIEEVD

[7] = target: Heat shock 70 kDa protein 1A (Homo sapiens, UniProt P0DMV8); experiment: inhibition of Hsp70 binding activity – biochemical, fluorescence polarization, SAR follow-up (AID 1072)
Heat shock 70 kDa protein 1A, sequence (P0DMV8 whole entry): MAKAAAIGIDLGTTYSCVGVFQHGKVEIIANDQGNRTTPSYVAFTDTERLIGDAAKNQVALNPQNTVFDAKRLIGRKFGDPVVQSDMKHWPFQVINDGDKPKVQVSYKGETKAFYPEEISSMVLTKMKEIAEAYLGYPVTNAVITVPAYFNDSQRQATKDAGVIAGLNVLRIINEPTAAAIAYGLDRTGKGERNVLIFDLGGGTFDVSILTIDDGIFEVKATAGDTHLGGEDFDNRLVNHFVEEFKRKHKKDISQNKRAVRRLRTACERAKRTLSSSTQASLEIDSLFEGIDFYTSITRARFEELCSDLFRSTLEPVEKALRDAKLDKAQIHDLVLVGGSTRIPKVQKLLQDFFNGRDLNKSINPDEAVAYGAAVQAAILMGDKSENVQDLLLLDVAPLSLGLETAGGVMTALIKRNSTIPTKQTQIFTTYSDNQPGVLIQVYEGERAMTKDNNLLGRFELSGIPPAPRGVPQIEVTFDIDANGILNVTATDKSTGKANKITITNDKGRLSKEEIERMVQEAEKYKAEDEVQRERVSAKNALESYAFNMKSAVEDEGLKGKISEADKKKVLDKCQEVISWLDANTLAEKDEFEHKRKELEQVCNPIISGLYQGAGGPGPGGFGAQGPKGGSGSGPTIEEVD

[8] = target: T3, Dual specificity protein phosphatase 6 (Rattus norvegicus, UniProt Q64346)
T3 sequence (Q64346 whole entry): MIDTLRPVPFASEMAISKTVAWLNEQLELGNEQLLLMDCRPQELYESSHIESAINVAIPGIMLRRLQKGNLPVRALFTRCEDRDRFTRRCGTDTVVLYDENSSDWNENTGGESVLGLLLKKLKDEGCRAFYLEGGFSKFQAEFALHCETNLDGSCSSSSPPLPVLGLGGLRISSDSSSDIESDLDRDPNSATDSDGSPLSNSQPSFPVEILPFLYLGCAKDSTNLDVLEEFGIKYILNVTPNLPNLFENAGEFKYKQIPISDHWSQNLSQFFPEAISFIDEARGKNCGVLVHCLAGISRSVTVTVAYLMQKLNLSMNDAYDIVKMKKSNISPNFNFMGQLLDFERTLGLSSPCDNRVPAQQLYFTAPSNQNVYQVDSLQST

[9] = target: T3, Dual specificity protein phosphatase 6; format: functional
[10] = target: Eukaryotic translation initiation factor 4H (Homo sapiens, UniProt Q15056); experiment: eIF4H binding inhibition – biochemical, uHTS, fluorescence polarization, translation initiation inhibitor project, primary screen (AID 2012)
[11] = target: Polyadenylate-binding protein 1 (Homo sapiens, UniProt P11940); experiment: blockers of PABP interaction with poly(A) – biochemical, fluorescence polarization, […] (AID 2014)
[12] = target: Paired box protein Pax-8 (Homo sapiens, UniProt Q06710); experiment: PAX8 transcriptional activity inhibition in RMG-I – RMG-I cells, luciferase, cherry-pick, dose response (AID 687027); format: functional, cell-based;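 further: luciferase reporter driven by Pax8 target thyroperoxidase promoter measured by SteadyGlo luminescence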
[13] = target: DNA dC->dU-editing enzyme APOBEC-3G (Homo sapiens, UniProt Q9HC16); experiment: Dose Response confirmation of small molecule APOBEC3G DNA Deaminase Inhibitors via a fluorescence-based single-stranded DNA deaminase assay. [Related pubchem assays (depositor defined):AID493012, AID493028]; format: functional
DNA dC->dU-editing enzyme APOBEC-3G, sequence (Q9HC16 whole entry): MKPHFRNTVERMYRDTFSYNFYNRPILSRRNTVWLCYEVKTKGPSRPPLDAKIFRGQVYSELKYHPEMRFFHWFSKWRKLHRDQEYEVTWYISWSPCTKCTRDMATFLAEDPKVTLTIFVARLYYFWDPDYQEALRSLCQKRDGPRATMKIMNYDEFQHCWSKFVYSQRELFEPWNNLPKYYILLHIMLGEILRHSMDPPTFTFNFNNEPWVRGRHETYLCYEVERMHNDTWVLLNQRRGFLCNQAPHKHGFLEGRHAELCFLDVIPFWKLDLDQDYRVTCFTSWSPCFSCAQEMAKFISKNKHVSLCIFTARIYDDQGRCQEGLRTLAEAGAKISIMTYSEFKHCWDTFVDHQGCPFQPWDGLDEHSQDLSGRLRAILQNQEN

[14] = Luminescence Cell-Based Dose Confirmation HTS to Identify Activators of 5'UTR Stem-Loop Driven Alpha-Synuclein mRNA Translation in H4 Neuroglioblastoma Cells. [Related pubchem assays: 1829 (Project Summary), 1814 (Primary HTS)]; format: functional
[15] = Luminescence Cell-Based Dose Response HTS to Identify Activators of Luciferase Translation or Activity in H4 […] Cells. [Related pubchem assays: 1829 (Project Summary), 1814 (Primary HTS)]; format: functional
[16] = tested on: H4; experiment: Luminescence Cell-Based Dose Response HTS to Identify Activators of 5'UTR Stem-Loop Driven Prion Protein mRNA Translation in H4 Neuroglioblastoma Cells. [Related pubchem assays: 1829 (Project Summary), 1814 (Primary HTS)]; format: functional; details: Homo sapiens
[17] = tested on: HeLa; experiment: viability loss in HeLa cells – cell-based, 24 h, cherry-picked samples, cytotoxicity control, dose response (AID 504726); format: functional; details: Homo sapiens;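 further: potency for cytotoxicity as loss of luminescence signal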
[18] = target: T4, Endoribonuclease toxin MazF (Escherichia coli K-12, UniProt P0AE70); experiment: activation of MazEF endoribonuclease cleavage – biochemical, fluorescence, single-stranded RNA substrate, uHTS hits, dose response (AID 588481); format: functional
T4 sequence (P0AE70 whole entry): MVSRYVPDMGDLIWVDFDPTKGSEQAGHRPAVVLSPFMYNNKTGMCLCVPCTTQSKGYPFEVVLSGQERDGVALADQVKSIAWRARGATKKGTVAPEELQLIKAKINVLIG

[19] = target: T4, Endoribonuclease toxin MazF; experiment: substrate-only fluorescence increase artefacts – biochemical, single-stranded RNase substrate, counter-screen for MazEF activator project, dose response (AID 588502); format: functional
[20] = target: T5, Oxysterols receptor LXR-beta (Homo sapiens, UniProt P55055); format: functional, cell-based;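 further: agonist activity at LXR measured by a cell-based luminescence readout across a dose range, run as a counterscreen for daf-12 agonists; HEK293 cells with Gal4-LXR fusion and GAL4-driven luciferase reporter; potency for activation of Gal4-LXR reporter so compounds are agonists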
T5 sequence (P55055 whole entry): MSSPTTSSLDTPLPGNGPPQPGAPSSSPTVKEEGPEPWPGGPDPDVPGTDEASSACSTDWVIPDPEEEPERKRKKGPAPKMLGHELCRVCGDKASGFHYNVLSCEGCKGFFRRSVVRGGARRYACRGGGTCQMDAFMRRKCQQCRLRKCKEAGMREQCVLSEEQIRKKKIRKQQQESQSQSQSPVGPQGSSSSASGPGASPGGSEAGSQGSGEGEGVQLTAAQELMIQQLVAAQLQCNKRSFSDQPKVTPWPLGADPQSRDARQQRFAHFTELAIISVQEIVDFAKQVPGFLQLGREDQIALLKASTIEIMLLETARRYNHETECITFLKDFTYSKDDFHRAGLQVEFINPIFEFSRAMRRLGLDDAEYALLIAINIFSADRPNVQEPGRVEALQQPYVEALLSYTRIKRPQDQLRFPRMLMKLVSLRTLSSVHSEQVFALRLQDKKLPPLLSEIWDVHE

[21] = target: Voltage-dependent T-type calcium channel subunit alpha-1H (Homo sapiens, UniProt O95180); format: functional;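 further: channel activity triggered by adding a high calcium stimulation buffer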
Voltage-dependent T-type calcium channel subunit alpha-1H, sequence (O95180 whole entry): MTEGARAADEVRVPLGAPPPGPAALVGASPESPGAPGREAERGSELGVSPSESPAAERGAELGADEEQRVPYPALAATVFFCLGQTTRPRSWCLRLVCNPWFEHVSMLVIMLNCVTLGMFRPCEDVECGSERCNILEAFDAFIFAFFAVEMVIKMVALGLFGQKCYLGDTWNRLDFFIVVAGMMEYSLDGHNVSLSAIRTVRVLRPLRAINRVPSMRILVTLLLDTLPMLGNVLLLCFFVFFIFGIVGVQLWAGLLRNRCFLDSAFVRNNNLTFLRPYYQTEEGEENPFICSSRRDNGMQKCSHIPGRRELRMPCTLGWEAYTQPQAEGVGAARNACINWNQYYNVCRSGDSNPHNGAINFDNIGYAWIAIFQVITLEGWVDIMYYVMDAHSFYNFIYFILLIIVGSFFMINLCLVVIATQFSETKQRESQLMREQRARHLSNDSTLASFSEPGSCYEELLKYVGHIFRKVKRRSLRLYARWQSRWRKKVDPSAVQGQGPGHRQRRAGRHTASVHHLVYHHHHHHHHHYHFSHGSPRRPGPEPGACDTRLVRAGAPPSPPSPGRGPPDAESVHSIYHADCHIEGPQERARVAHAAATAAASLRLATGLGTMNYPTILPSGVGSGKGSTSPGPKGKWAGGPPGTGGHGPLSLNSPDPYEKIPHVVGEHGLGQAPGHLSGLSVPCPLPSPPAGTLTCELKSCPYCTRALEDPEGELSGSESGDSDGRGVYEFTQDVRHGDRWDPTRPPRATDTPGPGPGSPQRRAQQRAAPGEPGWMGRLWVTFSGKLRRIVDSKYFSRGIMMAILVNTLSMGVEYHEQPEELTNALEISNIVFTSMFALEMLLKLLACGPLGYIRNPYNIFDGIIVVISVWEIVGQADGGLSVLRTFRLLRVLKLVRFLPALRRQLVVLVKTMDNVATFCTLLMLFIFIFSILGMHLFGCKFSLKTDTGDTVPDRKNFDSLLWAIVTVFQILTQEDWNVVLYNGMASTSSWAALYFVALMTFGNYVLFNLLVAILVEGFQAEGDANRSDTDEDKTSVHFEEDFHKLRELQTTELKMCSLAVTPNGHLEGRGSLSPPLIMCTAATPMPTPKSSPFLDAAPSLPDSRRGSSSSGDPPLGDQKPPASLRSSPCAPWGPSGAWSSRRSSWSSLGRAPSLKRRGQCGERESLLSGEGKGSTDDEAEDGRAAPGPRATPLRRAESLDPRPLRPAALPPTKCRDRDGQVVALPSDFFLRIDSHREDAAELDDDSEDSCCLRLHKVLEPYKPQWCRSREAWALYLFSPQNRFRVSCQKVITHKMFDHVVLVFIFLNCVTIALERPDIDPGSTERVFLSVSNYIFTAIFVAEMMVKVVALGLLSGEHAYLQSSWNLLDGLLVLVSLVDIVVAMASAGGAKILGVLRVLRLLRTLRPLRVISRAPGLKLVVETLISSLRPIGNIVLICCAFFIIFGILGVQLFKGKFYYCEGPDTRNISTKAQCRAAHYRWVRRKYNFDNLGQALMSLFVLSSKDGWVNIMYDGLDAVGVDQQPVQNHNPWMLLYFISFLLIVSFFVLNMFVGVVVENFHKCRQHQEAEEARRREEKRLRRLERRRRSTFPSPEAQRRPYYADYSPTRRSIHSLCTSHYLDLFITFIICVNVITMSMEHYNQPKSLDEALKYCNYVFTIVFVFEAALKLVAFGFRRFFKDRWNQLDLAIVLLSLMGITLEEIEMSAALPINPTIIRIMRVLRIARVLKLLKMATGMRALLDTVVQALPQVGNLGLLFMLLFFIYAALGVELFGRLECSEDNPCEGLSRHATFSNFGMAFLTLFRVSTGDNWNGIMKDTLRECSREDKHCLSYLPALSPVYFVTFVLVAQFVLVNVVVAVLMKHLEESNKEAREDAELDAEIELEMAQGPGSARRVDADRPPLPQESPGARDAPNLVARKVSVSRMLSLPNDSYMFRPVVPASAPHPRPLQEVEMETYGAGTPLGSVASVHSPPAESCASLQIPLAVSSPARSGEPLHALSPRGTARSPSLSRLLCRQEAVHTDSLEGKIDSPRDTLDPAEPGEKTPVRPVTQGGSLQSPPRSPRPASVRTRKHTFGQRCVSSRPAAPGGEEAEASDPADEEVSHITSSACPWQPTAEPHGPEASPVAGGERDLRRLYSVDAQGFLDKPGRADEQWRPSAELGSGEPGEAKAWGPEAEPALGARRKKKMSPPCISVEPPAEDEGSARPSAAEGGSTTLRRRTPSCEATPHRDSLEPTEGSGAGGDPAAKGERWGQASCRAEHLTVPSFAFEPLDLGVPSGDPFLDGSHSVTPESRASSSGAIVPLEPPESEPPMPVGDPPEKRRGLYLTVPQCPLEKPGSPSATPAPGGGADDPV

[22] = target: X-box-binding protein 1 (Homo sapiens, UniProt P17861); format: functional, Cricetulus griseus;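 further: confirmatory dose-response counter-screen serving a CHOP assay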
X-box-binding protein 1, sequence (P17861 whole entry): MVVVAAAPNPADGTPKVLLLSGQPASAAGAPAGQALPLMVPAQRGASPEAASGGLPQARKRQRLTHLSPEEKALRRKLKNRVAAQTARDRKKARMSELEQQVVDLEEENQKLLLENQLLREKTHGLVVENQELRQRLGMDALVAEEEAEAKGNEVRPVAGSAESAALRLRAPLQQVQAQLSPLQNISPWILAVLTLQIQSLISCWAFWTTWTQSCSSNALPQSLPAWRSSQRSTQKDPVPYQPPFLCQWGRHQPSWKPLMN

[23] = target: Beta-galactosidase (Escherichia coli, UniProt Q8VNN2); experiment: detection-enzyme interference by beta-gal modulators – biochemical, E. coli enzyme, set 3, artefact control for CCR6 antagonist project, dose response (AID 504712); format: functional

Structure (SMILES): Cc1ccc(-c2cc(N)n(-c3ccc(F)cc3)n2)cc1
- EC50 [1]: > 55.7 µM (not active)
- EC50 [2]: > 350 µM (not active)
- EC50 [3]: > 55.7 µM (not active)

Structure (SMILES): CC(C)COC(=O)c1ccc2c(c1)C1C=CCC1C(C(=O)O)N2 (stereo unspecified)
- IC50 [4]: 44.8 µM (active)
- IC50 [5]: 87.3 µM (active)
- IC50 [6]: 164 µM (active)
- IC50 [7]: 32.5 µM (active)
- IC50 [8]: 48.2 µM (active)
- IC50 [9]: 55.8 µM (active)

Structure (SMILES): C[C@H](NC(=O)c1ccco1)C(=O)Nc1cccc([N+](=O)[O-])c1
- IC50 [10]: > 100 µM (inactive)
- IC50 [11]: > 100 µM (inactive)
- AC50 [12]: 59.2 µM (active)

Structure (SMILES): CSc1nc2c(c(=O)[nH]c(=O)n2C)n1Cc1ccc(Cl)cc1
- IC50 [13]: 65.2 µM (active)

Structure (SMILES): CC(C)Cc1cc(C(=O)NCc2cccs2)no1
- EC50 [1]: > 55.7 µM (not active)
- EC50 [3]: > 55.7 µM (not active)

Structure (SMILES): Oc1[nH]c2ccccc2c1N=Nc1ccccc1F
- EC50 [14]: 4.39 µM (active)
- EC50 [15]: 8.29 µM (active)
- EC50 [16]: > 120 µM (not active)
- AC50 [17]: 100 µM (active)
- EC50 [18]: > 99 µM (inactive)
- EC50 [19]: 31.7 µM (inactive)
- EC50 [20]: > 67.6 µM (inactive)

Structure (SMILES): Cn1cccc1Cc1nnc(SCC(=O)Nc2ccc(F)cc2F)n1-c1ccc(F)cc1
- EC50 [21]: 4.6 µM (active)

Structure (SMILES): NS(=O)(=O)c1ccc2c(c1)C1C=CCC1C(C(=O)O)N2 (stereo unspecified)
- IC50 [4]: 47.3 µM (active)
- IC50 [5]: 62.2 µM (active)
- IC50 [6]: > 100 µM (not active)
- IC50 [7]: 1.97 µM (active)
- IC50 [8]: > 100 µM (inactive)
- IC50 [9]: > 100 µM (inactive)

Structure (SMILES): C[C@@H](C(=O)Nc1ccc2ccccc2c1)[C@@H]1C[C@@]1(C)[C@@H](NC(=O)c1ccccc1)c1ccccc1
- EC50 [21]: 2.95 µM (active)

Structure (SMILES): O=c1c2cccc(Cl)c2nc2n1Cc1ccccc1-2
- EC50 [14]: 23.4 µM (active)
- EC50 [15]: 64.2 µM (active)
- EC50 [16]: > 120 µM (not active)
- IC50 [13]: 27.4 µM (active)

Structure (SMILES): CC(C)Cn1c2c(c(=O)[nH]c1=O)C(C(F)(F)F)(C(F)(F)F)NC(CCC1CCCCC1)=N2
- Absolute IC50 (XBP1) [22]: 10 µM

Structure (SMILES): CC(C)c1ccc(O)c(NC(=S)NC(=O)c2ccc3c(c2)OCO3)c1
- IC50 [23]: > 66.6 µM (inactive)
